Test results: the NIST ThermoML archive (doi:10.1021/je0202073)

What was measured:
[1] = xn = mol fraction of the nth substance listed; settings: 101.3 kPa, Liquid
[2] = excess molar enthalpy (molar enthalpy of mixing); xn = mol fraction of the nth substance listed; settings: 101.3 kPa, Liquid, Calvet calorimetry

CCOC=O [ethyl methanoate] + CC(C)(C)O
Settings	excess molar enthalpy [kcal/mol]	excess molar volume [m3/mol]
[1], 303.15 K, x1 = 0.0451	–	1.65e-06
[1], 303.15 K, x1 = 0.0901	–	3.35e-06
[1], 303.15 K, x1 = 0.1537	–	5.06e-06
[1], 303.15 K, x1 = 0.1973	–	6.07e-06
[1], 303.15 K, x1 = 0.2481	–	7.02e-06
[1], 303.15 K, x1 = 0.2631	–	7.32e-06
[1], 303.15 K, x1 = 0.3042	–	7.9e-06
[1], 303.15 K, x1 = 0.3255	–	8.1e-06
[1], 303.15 K, x1 = 0.3448	–	8.3e-06
[1], 303.15 K, x1 = 0.3957	–	8.6e-06
[1], 303.15 K, x1 = 0.4411	–	8.73e-06
[1], 303.15 K, x1 = 0.4445	–	8.75e-06
[1], 303.15 K, x1 = 0.4964	–	8.79e-06
[1], 303.15 K, x1 = 0.5013	–	8.8e-06
[1], 303.15 K, x1 = 0.5084	–	8.78e-06
[1], 303.15 K, x1 = 0.5344	–	8.7e-06
[1], 303.15 K, x1 = 0.5515	–	8.64e-06
[1], 303.15 K, x1 = 0.5677	–	8.58e-06
[1], 303.15 K, x1 = 0.5954	–	8.35e-06
[1], 303.15 K, x1 = 0.6467	–	7.94e-06
[1], 303.15 K, x1 = 0.6956	–	7.42e-06
[1], 303.15 K, x1 = 0.7432	–	6.59e-06
[1], 303.15 K, x1 = 0.8016	–	5.54e-06
[1], 303.15 K, x1 = 0.8477	–	4.63e-06
[1], 303.15 K, x1 = 0.9067	–	3.28e-06
[1], 303.15 K, x1 = 0.9465	–	2.17e-06
[1], 318.15 K, x1 = 0.1022	–	4.09e-06
[1], 318.15 K, x1 = 0.1289	–	4.86e-06
[1], 318.15 K, x1 = 0.232	–	7.07e-06
[1], 318.15 K, x1 = 0.2909	–	7.96e-06
[1], 318.15 K, x1 = 0.3356	–	8.41e-06
[1], 318.15 K, x1 = 0.4076	–	8.97e-06
[1], 318.15 K, x1 = 0.4696	–	9.17e-06
[1], 318.15 K, x1 = 0.4934	–	9.19e-06
[1], 318.15 K, x1 = 0.5055	–	9.2e-06
[1], 318.15 K, x1 = 0.5111	–	9.19e-06
[1], 318.15 K, x1 = 0.5267	–	9.13e-06
[1], 318.15 K, x1 = 0.536	–	9.09e-06
[1], 318.15 K, x1 = 0.5637	–	8.91e-06
[1], 318.15 K, x1 = 0.5859	–	8.75e-06
[1], 318.15 K, x1 = 0.639	–	8.21e-06
[1], 318.15 K, x1 = 0.6902	–	7.6e-06
[1], 318.15 K, x1 = 0.7388	–	6.82e-06
[1], 318.15 K, x1 = 0.7922	–	5.79e-06
[1], 318.15 K, x1 = 0.8429	–	4.71e-06
[1], 318.15 K, x1 = 0.8913	–	3.45e-06
[1], 318.15 K, x1 = 0.9414	–	2.04e-06
[2], 299.15 K, x1 = 0.0689	0.141	–
[2], 299.15 K, x1 = 0.1401	0.254	–
[2], 299.15 K, x1 = 0.2146	0.354	–
[2], 299.15 K, x1 = 0.2869	0.43	–
[2], 299.15 K, x1 = 0.3549	0.478	–
[2], 299.15 K, x1 = 0.4172	0.506	–
[2], 299.15 K, x1 = 0.4738	0.518	–
[2], 299.15 K, x1 = 0.5242	0.517	–
[2], 299.15 K, x1 = 0.5696	0.515	–
[2], 299.15 K, x1 = 0.571	0.511	–
[2], 299.15 K, x1 = 0.6322	0.489	–
[2], 299.15 K, x1 = 0.6996	0.447	–
[2], 299.15 K, x1 = 0.7701	0.384	–
[2], 299.15 K, x1 = 0.8357	0.301	–
[2], 299.15 K, x1 = 0.8964	0.213	–
[2], 299.15 K, x1 = 0.9485	0.108	–
[2], 318.15 K, x1 = 0.0612	0.124	–
[2], 318.15 K, x1 = 0.1263	0.219	–
[2], 318.15 K, x1 = 0.2016	0.326	–
[2], 318.15 K, x1 = 0.2725	0.4	–
[2], 318.15 K, x1 = 0.3389	0.443	–
[2], 318.15 K, x1 = 0.3986	0.471	–
[2], 318.15 K, x1 = 0.4509	0.485	–
[2], 318.15 K, x1 = 0.4911	0.489	–
[2], 318.15 K, x1 = 0.511	0.49	–
[2], 318.15 K, x1 = 0.5304	0.49	–
[2], 318.15 K, x1 = 0.5696	0.484	–
[2], 318.15 K, x1 = 0.6207	0.475	–
[2], 318.15 K, x1 = 0.6806	0.449	–
[2], 318.15 K, x1 = 0.7292	0.417	–
[2], 318.15 K, x1 = 0.786	0.37	–
[2], 318.15 K, x1 = 0.8292	0.322	–
[2], 318.15 K, x1 = 0.8754	0.261	–
[2], 318.15 K, x1 = 0.9191	0.192	–
[2], 318.15 K, x1 = 0.9757	0.0729	–
